Earlier results, collected in patent US20160022604A1, “DIRECTLY COMPRESSED OSPEMIFENE COMPOSITIONS” (CADILA HEALTHCARE LIMITED, priority 2014, published 2016).

What was measured:
[1] = classical hormonal tests
[2] = experimental models and human volunteers

OCCOc1ccc(/C(=C(/CCCl)c2ccccc2)c2ccccc2)cc1 [Ospemifene, 2-[4-(4-chloro-1,2-diphenylbut-1-enyl)phenoxy]ethanol]
estrogenic and antiestrogenic effects [1]: relatively weak | total and LDL cholesterol levels [2]: decreases
